Experimental data from patent US9920030B2 (priority 2006, dated 2018).
Like-named read-outs stand apart in the source and are kept apart here.

Tests used:
Type in all cases: in vivo
[1] = test system: Phytophthora infestans (the causal agent of tomato late blight); experiment: whole plant or invertebrate
[2] = test system: Plasmopara vilicola (the causal agent of grape downy mildew); experiment: Test A: grape downy mildew, test suspension sprayed on grape seedlings after inoculation, visual disease rating
Description: General protocol for preparing test suspensions for Test A-C: The test compounds were first dissolved in acetone in an amount equal to 3% of the final volume and then suspended at the desired concentration (in ppm) in acetone and purified water (50/50 mix by volume) containing 250 ppm of the surfactant Trem® 014 (polyhydric alcohol esters). The resulting test suspensions were then used in Tests A-C. Spraying a 200 ppm test suspension to the point of run-off on the test plants was equivalent to a rate of 500 g/ha.
Grape seedlings were inoculated with a spore suspension of Plasmopara vilicola (the causal agent of grape downy mildew) and incubated in a saturated atmosphere at 20° C. for 24 h. After a short drying period, the test suspension was sprayed to the point of run-off on the grape seedlings, which were then moved to a growth chamber at 20° C. for 5 days, after which time the grape seedling were placed back into a saturated atmosphere at 20° C. for 24 h. Upon removal, visual disease ratings were made.
Results for Tests A-C are given in Table A. In the table, a rating of 100 indicates 100% disease control and a rating of 0 indicates no disease control (relative to the controls). A dash (-) indicates no test results.

[3] = test system: Phytophthora infestans (the causal agent of tomato late blight); experiment: whole plant or invertebrate; remark: listed apart in the source
[4] = compounds without asterisk (application rate not given), 100 = 100% disease control, 0 = no control relative to the controls

Structure (SMILES) | Percent Disease Control, Test B [1, 4] [%] | Percent Disease Control, Test A [2, 4] [%] | Percent Disease Control, Test C [3, 4] [%] | also measured
CC(=O)N1C(c2ccccc2)COC1c1csc(C2CCN(C(=O)Cn3nc(C(F)(F)F)cc3C)CC2)n1 (stereo not drawn) [Compound 14] | 99 | 25 | 99 | –
Cc1cc(C(F)(F)F)nn1CC(=O)N1CCC(c2nc(C3=NOC(c4ccccc4)C3C)cs2)CC1 (stereo not drawn) [Compound 25] | – | – | – | Percent Disease Control, Test B ([1]; * tested at 40 ppm): 100%; Percent Disease Control, Test A ([2]; * tested at 40 ppm): 100%; Percent Disease Control, Test C ([3]; * tested at 40 ppm): 99%
Cc1cc(C(F)(F)F)nn1CC(=O)N1CCC(c2nc(-c3ccc(-c4ccccc4)cc3)cs2)CC1 [Compound 26] | 83 | 76 | 33 | –
Cc1cc(C(F)(F)F)nn1CC(=O)N1CCC(c2nc(C3=NOC(C)(c4ccccc4)CC3)cs2)CC1 (stereo not drawn) [Compound 29] | 100 | 99 | 99 | –
Cc1cc(C(F)(F)F)nn1CC(=O)N1CCC(c2nc(-c3cc(-c4ccccc4)no3)cs2)CC1 [Compound 30] | – | – | – | Percent Disease Control, Test B ([1]; ** tested at l0 ppm): 57%; Percent Disease Control, Test A ([2]; ** tested at l0 ppm): 31%; Percent Disease Control, Test C ([3]; ** tested at l0 ppm): 50%
Cc1cc(C(F)(F)F)nn1CC(=O)N1CCC(c2nc(C3=NC(c4ccccc4)CO3)cs2)CC1 (stereo not drawn) [Compound 31] | – | – | – | Percent Disease Control, Test B ([1]; ** tested at l0 ppm): 83%; Percent Disease Control, Test A ([2]; ** tested at l0 ppm): 84%; Percent Disease Control, Test C ([3]; ** tested at l0 ppm): 60%
Cc1cc(C(F)(F)F)nn1CC(=O)N1CCC(c2nc(C3=NCCN3Cc3ccccc3)cs2)CC1 [Compound 32] | 26 | 0 | 0 | –
Cc1cc(C(F)(F)F)nn1CC(=O)N1CCC(n2cc(-c3cccc(-c4ccccc4)c3)cn2)CC1 [Compound 33] | 9 | 15 | 0 | –
Cc1cc(C(F)(F)F)nn1CC(=O)N1CCC(n2cc(-c3cccc(-c4ccccc4)n3)cn2)CC1 [Compound 34] | 40 | 0 | 0 | –
Cc1cc(C(F)(F)F)nn1CC(=O)N1CCC(c2nc(C3=NOC4(CCCc5ccccc54)C3)cs2)CC1 (stereo not drawn) [Compound 37, 1-[4-[4-(3′,4′-dihydrospiro[isoxazole-5(4H), 1′,(2′H)-naphthalen]-3-yl)-2-thiazolyl]-1-piperidinyl]-2-[5-methyl-3-(trifluoromethyl)-1H-pyrazol-1-yl]ethanone] | – | – | – | Percent Disease Control, Test B ([1]; * tested at 40 ppm): 100%; Percent Disease Control, Test A ([2]; * tested at 40 ppm): 100%; Percent Disease Control, Test C ([3]; * tested at 40 ppm): 99%
Cc1cc(C(F)(F)F)nn1CC(=O)N1CCC(c2nc(C3=NOC(c4cc(Cl)cc(Cl)c4)(C(F)(F)F)C3)cs2)CC1 (stereo not drawn) [Compound 39] | 67 | 8 | 0 | –
Cc1cc(C(F)(F)F)nn1CC(=O)N1CCC(c2nc(-c3nnc(-c4ccccc4)o3)cs2)CC1 [Compound 40] | 100 | 47 | 99 | –
Cc1cc(C(F)(F)F)nn1CC(=O)N1CCC(c2nc(-c3ncc(-c4ccccc4)o3)cs2)CC1 [Compound 42] | 100 | 62 | 96 | –
Cc1cc(C(F)(F)F)nn1CC(=O)N1CCC(c2nc(-c3nc4ccccc4s3)cs2)CC1 [Compound 43] | 43 | 0 | 0 | –
Cc1cc(C(F)(F)F)nn1CC(=O)N1CCC(c2nc(C3=NOC4(CCc5ccccc54)C3)cs2)CC1 (stereo not drawn) [Compound 44, 1-[4-[4-(2,3-dihydrospiro[1H-indene-1,5′(4′H)-isoxazol]-3′-yl)-2-thiazolyl]-1-piperidinyl]-2-[5-methyl-3-(trifluoromethyl)-1H-pyrazol-1-yl]ethanone] | – | – | – | pest or weed control at 40 ppm ([1]; Phytophthora infestans, 144 h, read-out: Percent Disease Control, Test B): 100%; pest or weed control at 40 ppm ([2]; Plasmopara, 144 h, * tested at 40 ppm, read-out: Percent Disease Control, Test A): 100%; pest or weed control at 40 ppm ([3]; Phytophthora infestans, 96 h, read-out: Percent Disease Control, Test C): 99%
Cc1cc(C(F)(F)F)nn1CC(=O)N1CCC(c2nc(C3=NOC4C(=O)N(C)C(=O)C34)cs2)CC1 (stereo not drawn) [Compound 45] | 26 | 30 | 0 | –
